Assay results as given in PubChem BioAssay (NCI).
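At the GI50, growth is halved. TGI: total growth inhibition.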

What was measured:
Assay in all cases: NCI tumour cell line growth inhibition, 384-well format
786-0 renal = tested on: 786-0 renal
A498 renal = tested on: A498 renal
A549 NSCLC = tested on: A549 NSCLC
ACHN renal = tested on: ACHN renal
BT-549 breast = tested on: BT-549 breast
CAKI-1 renal = tested on: CAKI-1 renal
CCRF-CEM leukemia = tested on: CCRF-CEM leukemia
COLO 205 colon = tested on: COLO 205 colon
DU-145 prostate = tested on: DU-145 prostate
EKVX NSCLC = tested on: EKVX NSCLC
HCC-2998 colon = tested on: HCC-2998 colon
HCT-116 colon = tested on: HCT-116 colon
HCT-15 colon = tested on: HCT-15 colon
HL-60(TB) leukemia = tested on: HL-60(TB) leukemia
HOP-62 NSCLC = tested on: HOP-62 NSCLC
HOP-92 NSCLC = tested on: HOP-92 NSCLC
HS 578T breast = tested on: HS 578T breast
HT29 colon = tested on: HT29 colon
IGROV1 ovarian = tested on: IGROV1 ovarian
K-562 leukemia = tested on: K-562 leukemia
KM12 colon = tested on: KM12 colon
LOX IMVI melanoma = tested on: LOX IMVI melanoma
M14 melanoma = tested on: M14 melanoma
MALME-3M melanoma = tested on: MALME-3M melanoma
MCF7 breast = tested on: MCF7 breast
MDA-MB-231 breast = tested on: MDA-MB-231 breast
MDA-MB-435 melanoma = tested on: MDA-MB-435 melanoma
MDA-MB-468 breast = tested on: MDA-MB-468 breast
MOLT-4 leukemia = tested on: MOLT-4 leukemia
NCI-H226 lung = tested on: NCI-H226 lung
NCI-H23 lung = tested on: NCI-H23 lung
NCI-H322M lung = tested on: NCI-H322M lung
NCI-H460 NSCLC = tested on: NCI-H460 NSCLC
NCI-H522 lung = tested on: NCI-H522 lung
NCI/ADR-RES ovarian = tested on: NCI/ADR-RES ovarian
OVCAR-3 ovarian = tested on: OVCAR-3 ovarian
OVCAR-4 ovarian = tested on: OVCAR-4 ovarian
OVCAR-8 ovarian = tested on: OVCAR-8 ovarian
PC-3 prostate = tested on: PC-3 prostate
RPMI-8226 leukemia = tested on: RPMI-8226 leukemia
RXF 393 renal = tested on: RXF 393 renal
SF-268 CNS = tested on: SF-268 CNS
SF-295 CNS = tested on: SF-295 CNS
SF-539 CNS = tested on: SF-539 CNS
SK-MEL-28 melanoma = tested on: SK-MEL-28 melanoma
SK-MEL-5 melanoma = tested on: SK-MEL-5 melanoma
SK-OV-3 ovarian = tested on: SK-OV-3 ovarian
SN12C renal = tested on: SN12C renal
SNB-19 CNS = tested on: SNB-19 CNS
SNB-75 CNS = tested on: SNB-75 CNS
SR leukemia = tested on: SR leukemia
SW-620 colon = tested on: SW-620 colon
T-47D breast = tested on: T-47D breast
TK-10 renal = tested on: TK-10 renal
U251 glioblastoma = tested on: U251 glioblastoma
UACC-257 melanoma = tested on: UACC-257 melanoma
UACC-62 melanoma = tested on: UACC-62 melanoma
UO-31 renal = tested on: UO-31 renal

**Q.** What does the source list for `Cc1nc2ccc(NC(=O)CCNC(=O)CCCc3ccc(CC(C(=O)O)C(=O)O)cc3)cc2s1`?
**A.** GI50 ([…]-0 renal): > 100 µM; TGI (786-0 renal): > 100 µM; GI50 (A498 renal): > 100 µM; TGI (A498 renal): > 100 µM; GI50 (A549 NSCLC): > 100 µM; TGI (A549 NSCLC): > 100 µM; GI50 (ACHN renal): > 100 µM; TGI (ACHN renal): > 100 µM; GI50 (BT-549 breast): > 100 µM; TGI (BT-549 breast): > 100 µM; GI50 (CAKI-1 renal): > 100 µM; TGI (CAKI-1 renal): > 100 µM; GI50 (CCRF-CEM leukemia): > 100 µM; TGI (CCRF-CEM leukemia): > 100 µM; GI50 (COLO 205 colon): > 100 µM; TGI (COLO 205 colon): > 100 µM; GI50 (DU-145 prostate): > 100 µM; TGI (DU-145 prostate): > 100 µM; GI50 (EKVX NSCLC): > 100 µM; TGI (EKVX NSCLC): > 100 µM; GI50 (HCC-2998 colon): > 100 µM; TGI (HCC-2998 colon): > 100 µM; GI50 (HCT-116 colon): > 100 µM; TGI (HCT-116 colon): > 100 µM; GI50 (HCT-15 colon): > 100 µM; TGI (HCT-15 colon): > 100 µM; GI50 (HL-60(TB) leukemia): > 100 µM; TGI (HL-60(TB) leukemia): > 100 µM; GI50 (HOP-62 NSCLC): > 100 µM; TGI (HOP-62 NSCLC): > 100 µM; GI50 (HOP-92 NSCLC): > 100 µM; TGI (HOP-92 NSCLC): > 100 µM; GI50 (HS 578T breast): > 100 µM; TGI (HS 578T breast): > 100 µM; GI50 (HT29 colon): > 100 µM; TGI (HT29 colon): > 100 µM; GI50 (IGROV1 ovarian): > 100 µM; TGI (IGROV1 ovarian): > 100 µM; GI50 (K-562 leukemia): > 100 µM; TGI (K-562 leukemia): > 100 µM; GI50 (KM12 colon): > 100 µM; TGI (KM12 colon): > 100 µM; GI50 (LOX IMVI melanoma): > 100 µM; TGI (LOX IMVI melanoma): > 100 µM; GI50 (M14 melanoma): > 100 µM; TGI (M14 melanoma): > 100 µM; GI50 (MALME-3M melanoma): > 100 µM; TGI (MALME-3M melanoma): > 100 µM; GI50 (MCF7 breast): > 100 µM; TGI (MCF7 breast): > 100 µM; GI50 (MDA-MB-231 breast): > 100 µM; TGI (MDA-MB-231 breast): > 100 µM; GI50 (MDA-MB-435 melanoma): > 100 µM; TGI (MDA-MB-435 melanoma): > 100 µM; GI50 (MDA-MB-468 breast): > 100 µM; TGI (MDA-MB-468 breast): > 100 µM; GI50 (MOLT-4 leukemia): > 100 µM; TGI (MOLT-4 leukemia): > 100 µM; GI50 (NCI-H226 lung): > 100 µM; TGI (NCI-H226 lung): > 100 µM; GI50 (NCI-H23 lung): > 100 µM; TGI (NCI-H23 lung): > 100 µM; GI50 (NCI-H322M lung): > 100 µM; TGI (NCI-H322M lung): > 100 µM; GI50 (NCI-H460 NSCLC): > 100 µM; TGI (NCI-H460 NSCLC): > 100 µM; GI50 (NCI-H522 lung): > 100 µM; TGI (NCI-H522 lung): > 100 µM; GI50 (NCI/ADR-RES ovarian): > 100 µM; TGI (NCI/ADR-RES ovarian): > 100 µM; GI50 (OVCAR-3 ovarian): > 100 µM; TGI (OVCAR-3 ovarian): > 100 µM; GI50 (OVCAR-4 ovarian): > 100 µM; TGI (OVCAR-4 ovarian): > 100 µM; GI50 (OVCAR-8 ovarian): > 100 µM; TGI (OVCAR-8 ovarian): > 100 µM; GI50 (PC-3 prostate): > 100 µM; TGI (PC-3 prostate): > 100 µM; GI50 (RPMI-8226 leukemia): > 100 µM; TGI (RPMI-8226 leukemia): > 100 µM; GI50 (RXF 393 renal): > 100 µM; TGI (RXF 393 renal): > 100 µM; GI50 (SF-268 CNS): > 100 µM; TGI (SF-268 CNS): > 100 µM; GI50 (SF-295 CNS): > 100 µM; TGI (SF-295 CNS): > 100 µM; GI50 (SF-539 CNS): > 100 µM; TGI (SF-539 CNS): > 100 µM; GI50 (SK-MEL-28 melanoma): > 100 µM; TGI (SK-MEL-28 melanoma): > 100 µM; GI50 (SK-MEL-5 melanoma): > 100 µM; TGI (SK-MEL-5 melanoma): > 100 µM; GI50 (SK-OV-3 ovarian): > 100 µM; TGI (SK-OV-3 ovarian): > 100 µM; GI50 (SN12C renal): > 100 µM; TGI (SN12C renal): > 100 µM; GI50 (SNB-19 CNS): > 100 µM; TGI (SNB-19 CNS): > 100 µM; GI50 (SNB-75 CNS): > 100 µM; TGI (SNB-75 CNS): > 100 µM; GI50 (SR leukemia): > 100 µM; TGI (SR leukemia): > 100 µM; GI50 (SW-620 colon): > 100 µM; TGI (SW-620 colon): > 100 µM; GI50 (T-47D breast): > 100 µM; TGI (T-47D breast): > 100 µM; GI50 (TK-10 renal): > 100 µM; TGI (TK-10 renal): > 100 µM; GI50 (U251 glioblastoma): > 100 µM; TGI (U251 glioblastoma): > 100 µM; GI50 (UACC-257 melanoma): > 100 µM; TGI (UACC-257 melanoma): > 100 µM; GI50 (UACC-62 melanoma): > 100 µM; TGI (UACC-62 melanoma): > 100 µM; GI50 (UO-31 renal): > 100 µM; TGI (UO-31 renal): > 100 µM
